From patent publication US20160075695A1, “BENZIMIDAZOLE DERIVATIVES AS BROMODOMAIN INHIBITORS” (Gilead Sciences, Inc., priority 2013, published 2016)
Where two headings read alike, the source gives them in different places.

Legend:
BRD4-2 = biological target: T1, BRD4-2 (Homo sapiens, UniProt O60885); test: HTRF (TR-FRET) assay, BRD4-2 binding to acetylated histone H4 peptide
T1 construct: made in house; host or cells: Escherichia coli
Description: (§1) Binding of the two tandem bromodomains, BRD4-1 and BRD4-2, to an acetylated histone H4 peptide was measured using a homogeneous time resolved fluorescence resonance energy transfer (TR-FRET) assay. […] BRD4-1 and BRD4-2 were expressed and purified from Escherichia coli as N-terminal His6-tagged proteins. An XL665 labeled anti-His antibody (Cisbio) was used to specifically bind BRD4 and a cryptate labeled streptavidin protein was used because it specifically recognized the biotinylated H4 peptide. […] After an assay reaction time of 60 minutes at 25° C., binding was measured with 2 nM crytptate labeled streptavidin and 10 nM anti-His-XL665 antibody. TR-FRET signal was detected on an Envision plate reader (Ex: 320 nm; Em: 615/665 nm; 100 us delay and 200 μs read window). […] All IC50 values represent geometric mean values of a minimum of four determinations.

BRD4-1 [1] = biological target: T2, BRD4-1 (Homo sapiens, UniProt O60885); test: HTRF (TR-FRET) assay, BRD4-1 binding to acetylated histone H4 peptide
T2 construct: made in house; host or cells: Escherichia coli
Description: as §1

BRD4-1 [2] = biological target: T2, BRD4-1; test: Alpha assay, BRD4-1 binding to acetylated histone H4 peptide
Description: Binding of the bromodomain BRD4-I to an acetylated histone H4 peptide was measured using a bead-based Amplified Luminescent Proximity Homogeneous Assay (ALPHA). […] BRD4-I was expressed and purified from Escherichia coli as an N-terminal His6-tagged protein. Nickel-Chelate ALPHA acceptor beads (Perkin Elmer) were used to specifically bind BRD4-1 and ALPHA streptavidin donor beads (Perkin Elmer) were used because they specifically recognized the biotinylated H4 peptide. […] Assays were performed in 50 mM Hepes (pH 7.5), 150 mM NaCl, 0.1 mg/ml BSA, 0.01% (v/v) Brij, 0.5% (v/v) DMSO, 200 nM H4 peptide and 15 nM of BRD4-1 protein. After an assay reaction time of 60 minutes at 25° C., binding was measured with 20 μg/ml streptavidin donor beads and 20 μg/ml nickle-chelate acceptor beads. ALPHA signal was detected on an Envision plate reader (Ex: 320 nm; Em: 570 nm; Ex time: 180 ms). […] All IC50 values represent geometric mean values of a minimum of four determinations.

[3] = 120 nM BRD4-2, 200 nM H4 peptide, 60 minutes at 25° C., geometric mean of a minimum of four determinations, read-out: HTRF BRD4-2 (IC50)
[4] = 60 nM BRD4-1, 200 nM H4 peptide, 60 minutes at 25° C., geometric mean of a minimum of four determinations, read-out: HTRF BRD4-1 (IC50)
[5] = 15 nM BRD4-1, 200 nM H4 peptide, 60 minutes at 25° C., geometric mean of a minimum of four determinations, read-out: Alpha Assay (IC50)

Row | Compound | IC50 (BRD4-2; [3]) [nM] | IC50 (BRD4-1 [1]; [4]) [nM] | IC50 (BRD4-1 [2]; [5]) [nM] | IC50 (BRD4-2) [nM] | IC50 (BRD4-1 [1]) [nM] | IC50 (BRD4-1 [2]) [nM]
1 | Cc1ccc2ncccc2c1-c1cc(-c2c(C)noc2C)cc2[nH]c(-c3cnn(C)c3)nc12 [Compound 1020-88, 3,5-Dimethyl-4-(2-(1-methyl-1H-pyrazol-4-yl)-4-(6-methylquinolin-5-yl)-1H-benzo[d]imidazol-6-yl)isoxazole] | 131 | 104 | 15.9 |  |  | 
2 | Cc1ccc2ncccc2c1-c1cc(-c2c(C)noc2C)cc2nc(C3CC3)n(C)c12 [Compound 1020-74, 4-(2-Cyclopropyl-1-methyl-7-(6-methylquinolin-5-yl)-1H-benzo[d]imidazol-5-yl)-3,5-dimethylisoxazole] | 112 | 97.1 | 18.9 |  |  | 
3 | Cc1n[nH]c(C)c1-c1cc(-c2c(C)noc2C)cc2[nH]c(NC3CC3)nc12 [Compound 1020-81, N-Cyclopropyl-4-(3,5-dimethyl-1H-pyrazol-4-yl)-6-(3,5-dimethylisoxazol-4-yl)-1H-benzo[d]imidazol-2-amine] | 119 | 169 | 50.7 |  |  | 
4 | Cc1noc(C)c1-c1cc(NC2CCCC2)c2nc(C3CC3)[nH]c2c1 [Compound 1020-50, N-Cyclopentyl-2-cyclopropyl-6-(3,5-dimethylisoxazol-4-yl)-1H-benzo[d]imidazol-4-amine] | 318 | 299 | 125 |  |  | 
5 | COc1nc2c(-c3c(C)ccc4ncccc34)cc(-c3c(C)noc3C)cc2[nH]1 [Compound 1020-90, 4-(2-methoxy-4-(6-methylquinolin-5-yl)-1H-benzo[d]imidazol-6-yl)-3,5-dimethylisoxazole] | 121 | 110 | 29.9 |  |  | 
6 | Cc1n[nH]c(C)c1-c1cc(-c2c(C)noc2C)cc2nc(N)[nH]c12 [Compound 1020-96, 4-(3,5-Dimethyl-1H-pyrazol-4-yl)-6-(3,5-dimethylisoxazol-4-yl)-1H-benzo[d]imidazol-2-amine] | 96.9 | 276 | 53.7 |  |  | 
7 | Cc1ccnc(C)c1-c1cc(-c2c(C)noc2C)cc2nc(C3CC3)[nH]c12 [Compound 1020-57, 4-(2-Cyclopropyl-7-(2,4-dimethylpyridin-3-yl)-1H-benzo[d]imidazol-5-yl)-3,5-dimethylisoxazole] | 54.4 | 109 | 22.6 |  |  | 
8 | Cc1n[nH]c(C)c1-c1cc(-c2c(C)noc2C)cc2nc(C3CC3)n(C)c12 [Compound 1020-72, 4-(2-cyclopropyl-7-(3,5-dimethyl-1H-pyrazol-4-yl)-1-methyl-1H-benzo[d]imidazol-5-yl)-3,5-dimethylisoxazole] | 69.1 | 101 | 12.3 |  |  | 
9 | Cc1noc(C)c1-c1cc(C(O)C2CCCC2)c2nc(C3CC3)[nH]c2c1 (stereo not shown) [Compound 1020-121, Cyclopentyl(2-cyclopropyl-6-(3,5-dimethylisoxazol-4-yl)-1H-benzo[d]imidazol-4-yl)methanol] | 80.8 | 95.2 | 24.7 |  |  | 
10 | Cc1noc(C)c1-c1cc(-c2cccnc2-c2ccccc2)c2nc(C3CC3)[nH]c2c1 [Compound 1020-19, 4-(2-Cyclopropyl-4-(2-phenylpyridin-3-yl)-1H-benzo[d]imidazol-6-yl)-3,5-dimethylisoxazole] | 172 | 134 | 28 |  |  | 
11 | CCC(O)(CC)c1cc(-c2c(C)noc2C)cc2c1nc(C1CC1)n2C [Compound 1020-132, 3-(2-Cyclopropyl-6-(3,5-dimethylisoxazol-4-yl)-1-methyl-1H-benzo[d]imidazol-4-yl)pentan-3-ol] | 883 | 610 | 573 |  |  | 
12 | Cc1noc(C)c1-c1cc(N2C(=O)CCC2C)c2nc(C3CC3)[nH]c2c1 (stereo not shown) [Compound 1020-136, 1-(2-Cyclopropyl-6-(3,5-dimethylisoxazol-4-yl)-1H-benzo[d]imidazol-4-yl)-5-methylpyrrolidin-2-one] | 727 | 823 | 513 |  |  | 
13 | Cc1n[nH]c(C)c1-c1cc(-c2c(C)noc2C)cc2nc(C3CC3(F)F)[nH]c12 (stereo not shown) [Compound 1020-78, 4-(2-(2,2-Difluorocyclopropyl)-7-(3,5-dimethyl-1H-pyrazol-4-yl)-1H-benzo[d]imidazol-5-yl)-3,5-dimethylisoxazole] | 94.1 | 161 | 25.1 |  |  | 
14 | Cc1noc(C)c1-c1cc(S(=O)(=O)NC2CCCC2)c2nc(NCC(F)(F)F)[nH]c2c1 [Compound 1020-148, N-Cyclopentyl-6-(3,5-dimethylisoxazol-4-yl)-2-(2,2,2-trifluoroethylamino)-1H-benzo[d]imidazole-4-sulfonamide] | 180 | 186 |  |  |  | 
15 | Cc1noc(C)c1-c1cc(S(=O)(=O)NC2CCCC2)c2nc(NCC3CC3)[nH]c2c1 [Compound 1020-1, N-Cyclopentyl-2-(cyclopropylmethylamino)-6-(3,5-dimethylisoxazol-4-yl)-1H-benzo[d]imidazole-4-sulfonamide] | 97.6 | 201 |  |  |  | 
16 | CC/C=C(\CC)c1cc(-c2c(C)noc2C)cc2nc(C3CC3)[nH]c12 [Compound 1020-28, (E)-4-(2-Cyclopropyl-4-(hex-3-en-3-yl)-1H-benzo[d]imidazol-6-yl)-3,5-dimethylisoxazole] | 65.5 | 71.8 | 18.1 |  |  | 
17 | Cc1noc(C)c1-c1cc(C(O)(c2ccccc2)c2ccccc2)c2nc(C3CC3)[nH]c2c1 [Compound 1020-102, (2-Cyclopropyl-6-(3,5-dimethylisoxazol-4-yl)-1H-benzo[d]imidazol-4-yl)diphenylmethanol] | 75.7 | 101 | 14.3 |  |  | 
18 | Cc1noc(C)c1-c1cc(S(=O)(=O)NC2CCCC2)c2nc(Cc3ccccc3)[nH]c2c1 [Compound 1020-141, 2-Benzyl-N-cyclopentyl-6-(3,5-dimethylisoxazol-4-yl)-1H-benzo[d]imidazole-4-sulfonamide] | 111 | 704 |  |  |  | 
19 | Cc1ccc2ncccc2c1-c1cc(-c2c(C)noc2C)cc2[nH]c(C(F)(F)F)nc12 [Compound 1020-92, 3,5-Dimethyl-4-(4-(6-methylquinolin-5-yl)-2-(trifluoromethyl)-1H-benzo[d]imidazol-6-yl)isoxazole] | 102 | 133 | 37.7 |  |  | 
20 | CSc1nc2c(S(=O)(=O)NC3CCCC3)cc(-c3c(C)noc3C)cc2[nH]1 [Compound 1020-4, N-Cyclopentyl-6-(3,5-dimethylisoxazol-4-yl)-2-(methylthio)-1H-benzo[d]imidazole-4-sulfonamide] | 230 | 337 |  |  |  | 
21 | CCC(CC)c1cc(-c2c(C)noc2C)cc2[nH]c(C3CC3)nc12 [Compound 1020-120, 4-(2-Cyclopropyl-4-(pentan-3-yl)-1H-benzo[d]imidazol-6-yl)-3,5-dimethylisoxazole] |  |  |  | 76.1 | 88.5 | 39.7
22 | Cc1noc(C)c1-c1cc(S(=O)(=O)NC2CCCC2)c2nc([S+](C)[O-])[nH]c2c1 (stereo not shown) [Compound 1020-5, N-Cyclopentyl-6-(3,5-dimethylisoxazol-4-yl)-2-(methylsulfinyl)-1H-benzo[d]imidazole-4-sulfonamide] | 357 | 616 |  |  |  | 
23 | CCC1CCC(=O)N1c1cc(-c2c(C)noc2C)cc2[nH]c(C3CC3)nc12 (stereo not shown) [Compound 1020-137, 1-(2-Cyclopropyl-6-(3,5-dimethylisoxazol-4-yl)-1H-benzo[d]imidazol-4-yl)-5-ethylpyrrolidin-2-one] | 399 | 187 | 52.8 |  |  | 
24 | Cc1ccc2ncccc2c1-c1cc(-c2c(C)noc2C)cc2[nH]c(C(O)CCO)nc12 (stereo not shown) [Compound 1020-89, 1-(6-(3,5-dimethylisoxazol-4-yl)-4-(6-methylquinolin-5-yl)-1H-benzo[d]imidazol-2-yl)propane-1,3-diol] | 151 | 379 | 130 |  |  | 
25 | Cc1nc2cc(-c3c(C)noc3C)cc(-c3c(C)n[nH]c3C)c2[nH]1 [Compound 1020-77, 4-(7-(3,5-Dimethyl-1H-pyrazol-4-yl)-2-methyl-1H-benzo[d]imidazol-5-yl)-3,5-dimethylisoxazole] | 64.8 | 244 | 42.7 |  |  | 
26 | Cc1noc(C)c1-c1cc(C(C)c2ccc(F)cc2)c2[nH]c(C3CC3)nc2c1 (stereo not shown) [Compound 1020-44, 4-(2-Cyclopropyl-4-(1-(4-fluorophenyl)ethyl)-1H-benzo[d]imidazol-6-yl)-3,5-dimethylisoxazole] | 111 | 139 | 22 |  |  | 
